# Test results from patent US12491180B2, “Application of compound in treating pneumonia” (SHENZHEN OPTIMUM BIOLOGICAL TECHNOLOGY CO., LTD., priority 2019, dated 2025).
# What was measured:
# Test in all cases: MIC, solid dilution method
# Format in all cases: cell-based
# [1] = system: Acinetobacter baumannii 8476; settings: A.B 8476, CRE clinical isolate, MHA agar, 37° C., 16-20 hours, read-out: MIC
# Experimental: (§1) CRE Acinetobacter baumannii 8476, 6383, a total of 2 strains; CRE Serratia marcescens 14541, a total of 1 strain; all collected in the Department of Infectious Diseases, West China Hospital, Chengdu, Sichuan Province, and kept in our laboratory.
# (§2) The above-mentioned glycerol-preserved strains were taken out from the −80° C. refrigerator, streaked and inoculated on MHA plates, labeled, and cultured overnight in a 37° C. incubator.
# (§3) The inoculum was prepared directly from bacterial suspension, and several recovered colonies were picked and directly prepared into a bacterial suspension with a turbidity of No. 0.5 McFarland units in normal saline, and a 10-fold dilution was made during inoculation.
# (§4) 6 bottles of MHA culture medium 500 mL/bottle were prepared, and the pH was adjusted to 7.2-7.4, sterilized at 121° C. for 15 min, and the medium was placed in a 55° C. water bath to keep warm.
# (§5) Sterile blank petri dishes were taken, and marked with each FL drug/concentration according to 2-fold dilution, and 10 concentrations of each drug starting from 8 μg/mL were tested.
# (§6) […]; 20 mL was aspirated and added to a petri dish consistent with the mark, and then 20 mL of MHA culture medium was added to the rest of the drug-containing culture medium, mixed evenly, that is, the 2-fold diluted drug-containing culture medium; 20 mL was aspirated and added to the petri dish consistent with the mark, and then diluted to the 10th concentration and the […] respectively by repeating the above-mentioned steps, and then poured into the petri dish.
# (§7) 4 bacterial control petri dishes without drug were prepared at the same time as a control.
# (§8) The positioning needle and the inoculation needle were installed according to the order of placement of the colony on the inoculation plate. After inoculation, a bacterial solution circle was formed on the petri dish. After the bacterial solution was absorbed by the agar, the petri dish was placed in an incubator at 37° C. for overnight incubation (16-20 hours), and then taken out.
# (§9) The minimum inhibitory concentrations of the compounds against the CRE and CSE strains were determined by the solid dilution method, and the results are shown in Tables 3 and 4.
# [2] = system: Serratia marcescens 14541; settings: Sma 14541, CRE clinical isolate, MHA agar, 37° C., 16-20 hours, read-out: MIC
# Experimental: as §1, §2, §3, §4, §5, §6, §7, §8, §9
# [3] = system: Acinetobacter baumannii 6383; settings: A.B 6383, CRE clinical isolate, MHA agar, 37° C., 16-20 hours, read-out: MIC
# Experimental: as §1, §2, §3, §4, §5, §6, §7, §8, §9
# [4] = system: Escherichia coli BAA-2452; settings: BAA2452, E. coli BAA-2452, standard strain, MHA agar, 37° C., 16-20 hours, read-out: MIC
# Experimental: (§10) (1) Standard strains: Escherichia coli BAA-2452, Escherichia coli ATCC25922, Klebsiella pneumoniae BAA-1705; all purchased from ATCC.
# as §2, §3, §4, §5, §6, §7, §8, §9
# [5] = system: Escherichia coli ATCC25922; settings: E. coli ATCC25922, standard strain, MHA agar, 37° C., 16-20 hours, read-out: MIC
# Experimental: as §10, §2, §3, §4, §5, §6, §7, §8, §9
# [6] = system: Klebsiella pneumoniae BAA-1705; settings: BAA1705, K.p BAA-1705, standard strain, MHA agar, 37° C., 16-20 hours, read-out: MIC
# Experimental: as §10, §2, §3, §4, §5, §6, §7, §8, §9
# [7] = system: Klebsiella pneumoniae 11544; settings: K.p 11544, CRE clinical isolate, MHA agar, 37° C., 16-20 hours, read-out: MIC
# Experimental: (§11) (2) Clinical isolated strains: CRE Klebsiella pneumoniae 5846, 11544, 12559, 13249 and CSE Klebsiella pneumoniae 8733, a total of 5 strains;
# as §2, §3, §4, §5, §6, §7, §8, §9
# [8] = system: Klebsiella pneumoniae 12559; settings: K.p 12559, CRE clinical isolate, MHA agar, 37° C., 16-20 hours, read-out: MIC
# Experimental: as §11, §2, §3, §4, §5, §6, §7, §8, §9
# [9] = system: Klebsiella pneumoniae 5846; settings: K.p 5846, CRE clinical isolate, MHA agar, 37° C., 16-20 hours, read-out: MIC
# Experimental: as §11, §2, §3, §4, §5, §6, §7, §8, §9
# [10] = system: Escherichia coli 13897; settings: E. coli 13897, CRE clinical isolate, MHA agar, 37° C., 16-20 hours, read-out: MIC
# Experimental: as §2, §3, §4, §5, §6, §7, §8, §9
# [11] = system: Escherichia coli 11119; settings: E. coli 11119, CRE clinical isolate, MHA agar, 37° C., 16-20 hours, read-out: MIC
# Experimental: as §2, §3, §4, §5, §6, §7, §8, §9
# [12] = system: Klebsiella oxytoca 14153; settings: K. ox 14153, CRE clinical isolate, MHA agar, 37° C., 16-20 hours, read-out: MIC
# Experimental: as §2, §3, §4, §5, §6, §7, §8, §9
# [13] = system: Klebsiella oxytoca 12391; settings: K. ox 12391, CRE clinical isolate, MHA agar, 37° C., 16-20 hours, read-out: MIC
# Experimental: as §2, §3, §4, §5, §6, §7, §8, §9
# [14] = system: E. coli 11256; settings: Escherichia coli; E. coli 11256; MHA agar, 37° C., 16-20 hours; read-out: MIC
# Experimental: as §2, §3, §4, §5, §6, §7, §8, §9
# [15] = system: Klebsiella oxytoca 6777; settings: K. ox 6777, CRE clinical isolate, MHA agar, 37° C., 16-20 hours, read-out: MIC
# Experimental: as §2, §3, §4, §5, §6, §7, §8, §9
# [16] = system: Klebsiella oxytoca 14151; settings: K. ox 14151, CRE clinical isolate, MHA agar, 37° C., 16-20 hours, read-out: MIC
# Experimental: as §2, §3, §4, §5, §6, §7, §8, §9
# [17] = system: Escherichia coli 14828; settings: E. coli 14828, CRE clinical isolate, MHA agar, 37° C., 16-20 hours, read-out: MIC
# Experimental: as §2, §3, §4, §5, §6, §7, §8, §9
# [18] = system: Enterobacter cloacae 11090; settings: E. cl 11090, CRE clinical isolate, MHA agar, 37° C., 16-20 hours, read-out: MIC
# Experimental: as §2, §3, §5, §7, §8
# [19] = system: Enterobacter cloacae 11699; settings: E. cl 11699, CSE clinical isolate, MHA agar, 37° C., 16-20 hours, read-out: MIC
# Experimental: as §2, §3, §5, §7, §8
# [20] = system: Enterobacter cloacae 14653; settings: E. cl 14653, CRE clinical isolate, MHA agar, 37° C., 16-20 hours, read-out: MIC
# Experimental: as §2, §3, §5, §7, §8
SMILES,MIC [1] [µg/mL],MIC [2] [µg/mL],MIC [3] [µg/mL],MIC [4] [µg/mL],MIC [5] [µg/mL],MIC [6] [µg/mL],MIC [7] [µg/mL],MIC [8] [µg/mL],MIC [9] [µg/mL],MIC [10] [µg/mL],MIC [11] [µg/mL],MIC [12] [µg/mL],MIC [13] [µg/mL],MIC [14] [µg/mL],MIC [15] [µg/mL],MIC [16] [µg/mL],MIC [17] [µg/mL],MIC [18] [µg/mL],MIC [19] [µg/mL],MIC [20] [µg/mL]
CC1(C)[C@H](NC(=O)/C(=N\O[C@@H](COc2ccc3c(c2)CN(C(=N)N[C@@H]2CCCNC2)C3)C(=O)O)c2csc(N)n2)C(=O)N1OS(=O)(=O)O [Compound 41],2,> 8,4,0.25,< 0.015,0.25,> 8,0.125,0.125,0.06,4,0.25,0.25,0.03,0.25,0.25,0.125,1,0.06,0.5
CC1(C)[C@H](NC(=O)/C(=N\O[C@@H](COc2ccc3c(c2)CN(C(=N)N(CCCN)CCCN)C3)C(=O)O)c2csc(N)n2)C(=O)N1OS(=O)(=O)O [Compound 32],2,4,2,0.25,< 0.015,0.125,2,0.125,0.06,0.06,4,0.125,0.125,< 0.015,0.125,0.125,0.06,0.5,0.03,0.25
"CC1(C)[C@H](NC(=O)/C(=N\O[C@@H](COc2ccc(C(=N)N[C@@H]3CCCNC3)cc2)C(=O)O)c2csc(N)n2)C(=O)N1OS(=O)(=O)O [AIC499, reference compound]",2,> 8,8,0.5,0.03,1,> 8,0.5,0.25,0.25,> 8,1,1,0.06,0.5,0.5,0.5,2,0.06,1
CC1(C)[C@H](NC(=O)/C(=N\O[C@@H](COc2ccc3c(c2)CN(C(=N)NOCCN)C3)C(=O)O)c2csc(N)n2)C(=O)N1OS(=O)(=O)O [Compound 43],8,> 8,> 8,0.5,0.06,1,> 8,0.5,0.5,0.25,> 8,1,1,0.125,1,1,0.5,2,0.125,1

# Results, then the compound that gave them:
MIC [1] [µg/mL],MIC [2] [µg/mL],MIC [3] [µg/mL],MIC [4] [µg/mL],MIC [5] [µg/mL],MIC [6] [µg/mL],MIC [7] [µg/mL],MIC [8] [µg/mL],MIC [9] [µg/mL],MIC [10] [µg/mL],MIC [11] [µg/mL],MIC [12] [µg/mL],MIC [13] [µg/mL],MIC [14] [µg/mL],MIC [15] [µg/mL],MIC [16] [µg/mL],MIC [17] [µg/mL],MIC [18] [µg/mL],MIC [19] [µg/mL],MIC [20] [µg/mL],SMILES
1,> 8,2,0.25,< 0.015,0.25,8,0.125,0.125,0.125,4,0.25,0.25,0.03,0.25,0.25,0.125,0.5,0.03,0.25,CC1(C)[C@H](NC(=O)/C(=N\O[C@@H](COc2ccc3c(c2)CN(C(=N)NCCN)C3)C(=O)O)c2csc(N)n2)C(=O)N1OS(=O)(=O)O [Compound 44]
4,> 8,4,0.25,< 0.015,0.5,8,0.25,0.125,0.125,4,0.25,0.25,0.03,0.25,0.25,0.125,1,0.125,0.5,CC1(C)[C@H](NC(=O)/C(=N\O[C@@H](COc2ccc3c(c2)CN(/C(=N\[C@@H]2CCCNC2)N[C@@H]2CCCNC2)C3)C(=O)O)c2csc(N)n2)C(=O)N1OS(=O)(=O)O [Compound 46]
